Source: PubChem BioAssay AID200 (DTP/NCI, 2004)
Values joined by “and” are separate entries in the source; they are usually repeats but may differ in a detail not shown here. Equal values may be shown once. Toxic doses and inconclusive results are not listed.

Test system: B6C3F1 mice, B16 melanoma ip, median survival T/C
Experiment: NCI In Vivo Anticancer Drug Screen. Data for tumor model B16 Melanoma (intraperitoneal) in B6C3F1 mice
Conditions: endpoint: median survival time, schedule: Q01DX009 (ip), higher = longer survival
Method in brief: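 Mice bearing transplanted tumor were dosed with compound or vehicle, and survival was recorded. Activity is expressed as the treated-group measurement (T) divided by the vehicle control measurement (C).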

[1] = dose: 6.25 mg/kg/injection, vehicle: saline with Tween-80
[2] = dose: 12.5 mg/kg/injection, vehicle: saline with Tween-80
[3] = dose: 25.0 mg/kg/injection, vehicle: saline with Tween-80
[4] = dose: 50.0 mg/kg/injection, vehicle: saline with Tween-80
[5] = dose: 100.0 mg/kg/injection, vehicle: saline with Tween-80
[6] = dose: 200.0 mg/kg/injection, vehicle: saline with Tween-80

In the case of `O=S(=O)(O)O`, the T/C (dose: 30.0 mg/kg/injection, vehicle: water) is reported as 121 % of control and 91 % of control, the T/C (dose: 44.0 mg/kg/injection, vehicle: water) is reported as 108 % of control and 99 % of control and the T/C (dose: 67.0 mg/kg/injection, vehicle: water) is reported as 95 % of control and 102 % of control. The T/C (dose: 100.0 mg/kg/injection, vehicle: water) was 97 % of control and 103 % of control.
In the case of `C[n+]1c(-c2cccc3ccccc23)c2cc(N)ccc2c2ccccc21`, the T/C (dose: 1.56 mg/kg/injection, vehicle: saline) is reported as 117 % of control, the T/C (dose: 3.12 mg/kg/injection, vehicle: saline) is reported as 122 % of control and the T/C (dose: 6.25 mg/kg/injection, vehicle: saline) is reported as 119 % of control.
With `COc1cc2cc(c1Cl)N(C)C(=O)CC(O)C1(C)OC1C(C)C1CC(O)(NC(=O)O1)C(OC)/C=C/C=C(C)C2OC` (configuration not stated) the T/C (dose: 4.0 micrograms/kg/injection, vehicle: distilled water + alcohol) was 105 % of control, the T/C (dose: 8.0 micrograms/kg/injection, vehicle: distilled water + alcohol) was 96 % of control and the T/C (dose: 16.0 micrograms/kg/injection, vehicle: distilled water + alcohol) was 102 % of control. The T/C (dose: 32.0 micrograms/kg/injection, vehicle: distilled water + alcohol) was 88 % of control.
With `CCCCCNc1ncnc2c(C)[nH]nc12` the T/C (dose: 25.0 mg/kg/injection, vehicle: Klucel (hydroxypropylcellulose) (HPC)) was 100 % of control, the T/C (dose: 50.0 mg/kg/injection, vehicle: Klucel (hydroxypropylcellulose) (HPC)) was 91 % of control and the T/C (dose: 100.0 mg/kg/injection, vehicle: Klucel (hydroxypropylcellulose) (HPC)) was 86 % of control.
`Nc1nc2c(ncn2C2OC(CO)C(O)C2N)c(=O)[nH]1` (configuration not stated) was tested, and the T/C (dose: 3.12 mg/kg/injection, vehicle: saline with Tween-80) was 97 % of control, the T/C [1] was 90 % of control and the T/C [2] was 107 % of control. The T/C [3] was 112 % of control, the T/C [4] was 97 % of control and the T/C [5] was 107 % of control. For the same compound, the T/C [6] was 104 % of control.
`O=C(O)Cc1cccc2c(=O)cc(-c3ccccc3)oc12` was tested, and the T/C (dose: 12.5 mg/kg/injection, vehicle: suspension in saline) was 109 % of control and 103 % of control, the T/C (dose: 25.0 mg/kg/injection, vehicle: suspension in saline) was 115 % of control and 123 % of control and the T/C (dose: 50.0 mg/kg/injection, vehicle: suspension in saline) was 172 % of control. The T/C (dose: 100.0 mg/kg/injection, vehicle: suspension in saline) was 152 % of control and 163 % of control.
With `O=S(=O)(CCl)OCCCl` the T/C [1] was 97 % of control and 100 % of control, the T/C [2] was 108 % of control and 113 % of control and 103 % of control and the T/C [3] was 114 % of control and 115 % of control and 102 % of control. The T/C [4] was 109 % of control and 100 % of control and the T/C [5] was 110 % of control.
In the case of `CC[C@@]1(O)C(=O)OCc2c1cc1n(c2=O)Cc2cc3cc(O)ccc3nc2-1`, the T/C (dose: 0.37 mg/kg/injection, vehicle: suspension in saline) is reported as 155 % of control, the T/C (dose: 0.38 mg/kg/injection, vehicle: other) is reported as 160 % of control and the T/C (dose: 0.75 mg/kg/injection, vehicle: other) is reported as 191 % of control. The T/C (dose: 0.75 mg/kg/injection, vehicle: suspension in saline) was 183 % of control, the T/C (dose: 1.5 mg/kg/injection, vehicle: other) was 197 % of control and the T/C (dose: 1.5 mg/kg/injection, vehicle: suspension in saline) was 201 % of control. The T/C (dose: 3.0 mg/kg/injection, vehicle: suspension in saline) was 201 % of control.
`Nc1nc(=S)c2ncn(C3CC(O)C(CO)O3)c2[nH]1` (configuration not stated) was tested, and the T/C (dose: 12.5 mg/kg/injection, vehicle: saline) was 101 % of control, the T/C (dose: 25.0 mg/kg/injection, vehicle: saline) was 96 % of control and the T/C (dose: 50.0 mg/kg/injection, vehicle: saline) was 104 % of control. The T/C (dose: 100.0 mg/kg/injection, vehicle: saline) was 104 % of control, the T/C (dose: 200.0 mg/kg/injection, vehicle: saline) was 103 % of control and the T/C (dose: 400.0 mg/kg/injection, vehicle: saline) was 103 % of control.
`Cn1c(=O)c(-c2ccccc2)[n+]([O-])c2ccccc21` was tested, and the T/C [3] was 98 % of control, the T/C [4] was 122 % of control and the T/C [5] was 101 % of control. For the same compound, the T/C [6] was 94 % of control.
